Where only a bound is given, the exact number is not on record here.

In this assay the target is T1, Full-length glucokinase (beta cell isoform) (Homo sapiens, UniProt P35557).
T1 construct: Full-length glucokinase (beta cell isoform) was His-tagged at N-terminus; His tag (N); made in house
T1 sequence (P35557 1-465): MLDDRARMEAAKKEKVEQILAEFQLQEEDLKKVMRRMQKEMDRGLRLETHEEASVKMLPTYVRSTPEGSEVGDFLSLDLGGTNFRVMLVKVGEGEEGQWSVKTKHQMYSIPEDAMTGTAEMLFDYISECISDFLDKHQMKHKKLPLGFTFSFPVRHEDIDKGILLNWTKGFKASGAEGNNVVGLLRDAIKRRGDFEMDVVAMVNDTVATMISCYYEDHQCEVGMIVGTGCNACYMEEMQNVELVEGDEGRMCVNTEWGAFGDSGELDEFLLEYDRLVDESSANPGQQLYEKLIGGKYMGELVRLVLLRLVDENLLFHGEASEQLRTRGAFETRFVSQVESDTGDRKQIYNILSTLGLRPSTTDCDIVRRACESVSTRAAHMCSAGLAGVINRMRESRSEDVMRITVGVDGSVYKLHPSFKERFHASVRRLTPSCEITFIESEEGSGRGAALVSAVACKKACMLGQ
As to the kind of experiment: Glucokinase biochemical assay (PK/LDH-coupled, NADH depletion at 340 nm): % activation, EC50, % max activation. The conditions noted are these: 5 mM glucose; for activation at 10 µM: 10 uM compound, % Activation=(Va/Vo−1)×100, read-out: % Activation at 10 uM; for EC50: GK activation, read-out: EC50; for Emax: fitted maximum activation, read-out: % Max Activation. Summed up:
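N-terminally His-tagged full-length human beta-cell glucokinase, room temperature, 5 mM glucose, 1 mM ATP, PK/LDH-coupled with 0.7 mM NADH, 1% DMSO final. Initial velocity from the 200–900 s slope of A340 decline. % activation = (Va/Vo−1)×100, measured across compound concentrations.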

As a reminder, the EC50 is the midpoint of the concentration-response curve. As for `Cn1ccc(NC(=O)c2cc(Oc3ccc(C#N)nc3)c3c(c2)OC(C)(C)C3)n1` [Example 181, 4-(6-Cyano-pyridin-3-yloxy)-2,2-dimethyl-2,3-dihydro-benzofuran-6-carboxylic acid (1-methyl-1H-pyrazol-3-yl)-amide], the activation at 10 µM was determined as 171%, the EC50 is 1100 nM and the Emax turned out to be 182%.
The matching figures for `Cn1ccc(NC(=O)c2cc(Oc3ccc(-c4ncon4)nc3)c3c(c2)OC(C)(C)C3)n1` [Example 182, 2,2-Dimethyl-4-(6-[1,2,4]oxadiazol-3-yl-pyridin-3-yloxy)-2,3-dihydro-benzofuran-6-carboxylic acid (1-methyl-1H-pyrazol-3-yl)-amide]: 244%, 290 nM and 237%.
Turning to `Cn1ccc(NC(=O)c2cc(Oc3ccc(C#N)c(F)c3)c3c(c2)OC(C)(C)C3)n1` [Example 183, 4-(4-Cyano-3-fluoro-phenoxy)-2,2-dimethyl-2,3-dihydro-benzofuran-6-carboxylic acid (1-methyl-1H-pyrazol-3-yl)-amide], the activation at 10 µM was determined as 237%, the EC50 was determined as 1900 nM and the Emax is 236%.
In the case of `Cn1ncc(NC(=O)c2cc(Oc3ccc(C#N)c(F)c3)c3c(c2)OC(C)(C)C3)n1` [Example 184, 4-(4-Cyano-3-fluoro-phenoxy)-2,2-dimethyl-2,3-dihydro-benzofuran-6-carboxylic acid (2-methyl-2H-[1,2,3]triazol-4-yl)-amide], the activation at 10 µM is 250%, the EC50 stood at 3200 nM and the Emax came to 251%.
With `Cn1ccc(NC(=O)c2cc(Oc3ccc(-c4ncon4)c(F)c3)c3c(c2)OC(C)(C)C3)n1` [Example 185, 4-(3-Fluoro-4-[1,2,4]oxadiazol-3-yl-phenoxy)-2,2-dimethyl-2,3-dihydro-benzofuran-6-carboxylic acid (1-methyl-1H-pyrazol-3-yl)-amide], the activation at 10 µM was 248%, the EC50 came to 104 nM and the Emax was found to be 227%.
The matching figures for `Cn1ncc(NC(=O)c2cc(Oc3ccc(-c4ncon4)c(F)c3)c3c(c2)OC(C)(C)C3)n1` [Example 186, 4-(3-Fluoro-4-[1,2,4]oxadiazol-3-yl-phenoxy)-2,2-dimethyl-2,3-dihydro-benzofuran-6-carboxylic acid (2-methyl-2H-[1,2,3]triazol-4-yl)-amide]: 135%, 160 nM and 234%.
`Cn1ccc(NC(=O)c2cc(Oc3ccc(-c4ncon4)cc3)c3c(c2)OC(C)(C)C3)n1` [Example 187, 2,2-Dimethyl-4-(4-[1,2,4]oxadiazol-3-yl-phenoxy)-2,3-dihydro-benzofuran-6-carboxylic acid (1-methyl-1H-pyrazol-3-yl)-amide]: the activation at 10 µM is 178% and the EC50 was above 10000 nM.
As to `Cn1ncc(NC(=O)c2cc(Oc3ccc(-c4ncon4)cc3)c3c(c2)OC(C)(C)C3)n1` [Example 188, 2,2-Dimethyl-4-(4-[1,2,4]oxadiazol-3-yl-phenoxy)-2,3-dihydro-benzofuran-6-carboxylic acid (2-methyl-2H-[1,2,3]triazol-4-yl)-amide], the activation at 10 µM was 198%, the EC50 turned out to be 620 nM and the Emax was found to be 230%.
Consider `Cn1ccc(NC(=O)c2cc(Oc3ccc(-c4ncon4)c(Cl)c3)c3c(c2)OC(C)(C)C3)n1` [Example 189, 4-(3-Chloro-4-[1,2,4]oxadiazol-3-yl-phenoxy)-2,2-dimethyl-2,3-dihydro-benzofuran-6-carboxylic acid (1-methyl-1H-pyrazol-3-yl)-amide], for which the activation at 10 µM was 219%, the concentration giving a half-maximal response (EC50) was determined as 870 nM and the Emax turned out to be 245%.
As to `Cn1ccc(NC(=O)c2cc(Oc3ccc(S(C)(=O)=O)cc3)c3c(c2F)OC(C)(C)C3)n1` [Example 190, 7-Fluoro-4-(4-methanesulfonyl-phenoxy)-2,2-dimethyl-2,3-dihydro-benzofuran-6-carboxylic acid (1-methyl-1H-pyrazol-3-yl)-amide], the activation at 10 µM stood at 83.9%, the EC50 was determined as 7300 nM and the Emax turned out to be 138%.
As for `Cn1ccc(NC(=O)c2cc(Oc3ccc(C(=O)N4CCC4)cc3)c3c(c2F)OC(C)(C)C3)n1` [Example 191, 4-[4-(Azetidine-1-carbonyl)-phenoxy]-7-fluoro-2,2-dimethyl-2,3-dihydro-benzofuran-6-carboxylic acid (1-methyl-1H-pyrazol-3-yl)-amide], the activation at 10 µM worked out at 91.2%, the EC50 was determined as 1700 nM and the Emax is 119%.
For `Cn1ccc(NC(=O)c2cc3c(c(Oc4ccc(S(C)(=O)=O)cc4)c2F)CC(C)(C)O3)n1` [Example 192, 5-Fluoro-4-(4-methanesulfonyl-phenoxy)-2,2-dimethyl-2,3-dihydro-benzofuran-6-carboxylic acid (1-methyl-1H-pyrazol-3-yl)-amide], the activation at 10 µM was determined as 249%, the EC50 stood at 2100 nM and the Emax worked out at 285%.
Regarding `Cn1ccc(NC(=O)c2cc(OC3CN(S(C)(=O)=O)C3)c3c(c2)OC(C)(C)C3)n1` [Example 193, 4-(1-Methanesulfonyl-azetidin-3-yloxy)-2,2-dimethyl-2,3-dihydro-benzofuran-6-carboxylic acid (1-methyl-1H-pyrazol-3-yl)-amide], the activation at 10 µM stood at 116%, the EC50 came to 8800 nM and the Emax worked out at 237%.
In the case of `Cn1ncc(NC(=O)c2cc(OC3CN(S(C)(=O)=O)C3)c3c(c2)OC(C)(C)C3)n1` [Example 194, 4-(1-Methanesulfonyl-azetidin-3-yloxy)-2,2-dimethyl-2,3-dihydro-benzofuran-6-carboxylic acid (2-methyl-2H-[1,2,3]triazol-4-yl)-amide], the activation at 10 µM worked out at 146%, the EC50 worked out at 5000 nM and the Emax was 263%.
For the compound `CC(=O)N1CC(Oc2cc(C(=O)Nc3cnn(C)n3)cc3c2CC(C)(C)O3)C1` [Example 195, 4-(1-Acetyl-azetidin-3-yloxy)-2,2-dimethyl-2,3-dihydro-benzofuran-6-carboxylic acid (2-methyl-2H-[1,2,3]triazol-4-yl)-amide], the activation at 10 µM turned out to be 98.9% and the EC50 is above 10000 nM.
Turning to `CC(=O)N1CC(Oc2cc(C(=O)Nc3ccn(C)n3)cc3c2CC(C)(C)O3)C1` [Example 196, 4-(1-Acetyl-azetidin-3-yloxy)-2,2-dimethyl-2,3-dihydro-benzofuran-6-carboxylic acid (1-methyl-1H-pyrazol-3-yl)-amide], the activation at 10 µM came to 62% and the EC50 was above 10000 nM.
On to `Cn1ccc(NC(=O)c2cc(Oc3ccc(C(=O)N4CCC4)c(F)c3)cc3c2CC(C)(C)O3)n1` [Example 197, 6-[4-(Azetidine-1-carbonyl)-3-fluoro-phenoxy]-2,2-dimethyl-2,3-dihydro-benzofuran-4-carboxylic acid (1-methyl-1H-pyrazol-3-yl)-amide], for which the activation at 10 µM was found to be 77.6% and the EC50 is above 10000 nM.
Turning to `Cn1ncc(NC(=O)c2cc(Oc3ccc(S(C)(=O)=O)cc3)cc3c2CC(C)(C)O3)n1` [Example 198, 6-(4-Methanesulfonyl-phenoxy)-2,2-dimethyl-2,3-dihydro-benzofuran-4-carboxylic acid (2-methyl-2H-[1,2,3]triazol-4-yl)-amide], the activation at 10 µM was 51.4% and the EC50 is above 10000 nM.
